PMC11902257, “Antiprotozoal Aminosteroids from Pachysandra terminalis” (Molecules, 2025)
Values joined by “and” are separate entries in the source; they are usually repeats but may differ in a detail not shown here. Equal values may be shown once. Read-outs that look alike come from different tables or passages of the source.

Tests used:
Type in all cases: cell-based
[1] = test system: Plasmodium falciparum (Pf) NF54 strain; test: in vitro antiplasmodial assay, 3H-hypoxanthine incorporation, erythrocytic stages; conditions: for IC50: Plasmodium falciparum, read-out: IC50 Pf (converted); for SI (Pf): Selectivity index IC50(Cytotox)/IC50(Pf), pure compounds
Description: Plasmodium falciparum (Pf): Tests were performed against erythrocytic stages of the drug-sensitive NF54 strain. The NF54 strain was obtained from F. Hoffmann-La Roche Limited (Basel, Switzerland). The strain NF54 was originally derived from a patient living near Schiphol Airport, Amsterdam, who had never left the Netherlands. The assay was performed using a 3H-hypoxanthine incorporation assay. Serial compound dilutions were prepared with the medium as indicated above and then added in 96-well plates to parasite cultures incubated in the medium previously described, consisting of RPMI 1640 supplemented with 0.5% ALBUMAX® II, 25 mM Hepes, 25 mM NaHCO3 (pH 7.3), 0.36 mM hypoxanthine, and 100 μg/mL neomycin. The plates were incubated in a humidified atmosphere at 37 °C, 4% CO2, 3% O2, and 93% N2. After 48 h, 0.25 μCi of 3H-hypoxanthine was added to each well. Incubation was continued under identical conditions for a further 24 h. The plates were then harvested using a Betaplate™ cell harvester (Wallac, Zurich, Switzerland). The red blood cells were transferred onto a glass fiber filter and washed with distilled H2O. After drying, filters were inserted into a plastic foil with 10 mL of scintillation fluid and counted with a Betaplate™ liquid scintillation counter (Wallac, Zurich, Switzerland). Data were treated according to [44] (see below). The positive control was chloroquine.
(§1) Bioassay data and statistical methods: In all cases, the readout data were plotted in Microsoft Excel. Half-maximal inhibitory concentrations (IC50 values) were calculated from the sigmoidal dose-response curves by linear regression. Two independent replicates of the assay were performed in all cases, and the results were expressed as arithmetic mean ± deviation from the mean.

[2] = test system: Trypanosoma brucei rhodesiense (Tbr) STIB900 strain; test: in vitro antitrypanosomal assay, bloodstream forms, resazurin; conditions: for SI(Tbr): Selectivity index IC50(Cytotox)/IC50(Tbr); for IC50: read-out: IC50 Tbr (converted)
Description: Trypanosoma brucei rhodesiense (Tbr): The STIB900 strain is a derivative of the STIB704 strain isolated from a patient in Ifakara, Tanzania, in 1982 [43]. The bloodstream forms were cultivated as axenic culture in HMI-9 medium, supplemented with 15% heat-inactivated horse serum. Cultures were maintained at 37 °C in an atmosphere of 5% CO2. Test compounds were dissolved in DMSO (10 mg/mL), and serial drug dilutions of eleven 3-fold dilution steps covering a range from 100 to 0.002 μg/mL were prepared in a 96-well plate. Bloodstream-form of T. b rhodesiense strain STIB900 (2 × 10^3/well) was added into the wells. After 68 h incubation, 10 μL of resazurin solution (12.5 mg resazurin in 100 mL 1xPBS) was added per well, and plates were incubated for an additional 4 h. Subsequently, the plates were read with a Spectramax Gemini EM microplate fluorometer (Molecular Devices, San Jose, CA, USA) using an excitation wavelength of 536 nm and an emission wavelength of 588 nm. Data were treated according to [44] (see below). Melarsoprol was used as a positive control.
as §1

[3] = cytotoxicity against L-6 rat skeletal myoblasts, resazurin
Description: Cytotoxicity against L-6 rat skeletal myoblasts: The L6 rat skeletal myoblast cell line used for cytotoxicity tests was obtained from the American Type Culture Collection (ATCC, Manassas, VA, USA) as ATCC-CRL-1458 [50]. The cells were cultivated in RPMI 1640 medium supplemented with 1% L-glutamine (200mM) and 10% fetal bovine serum. Cultures were maintained at 37 °C in an atmosphere of 5% CO2. Assays were performed in 96-well plates, each well containing RPMI 1640 medium supplemented with 1% L-glutamine (200 mM), 10% fetal bovine serum, and 2 × 10^3 L-6 cells/well. Plates were incubated at 37 °C under a 5% CO2 atmosphere for 24 h. Compounds were dissolved in DMSO (10 mg/mL). After 24 h, serial drug dilutions of eleven 3-fold dilution steps covering a range from 100 to 0.002 μg/mL were prepared, and the plates were incubated at 37 °C under 5% CO2 for 70 h. After 70 h incubation, 10 μL of resazurin solution (12.5 mg resazurin in 100 mL 1xPBS) was added per well, and plates were incubated for an additional 2 h. After that, the plates were read with a Spectramax Gemini EM microplate fluorometer (Molecular Devices, San Jose, CA, USA) using an excitation wavelength of 536 nm and an emission wavelength of 588 nm. Data were treated according to [44] (see below). Podophyllotoxin served as a positive control.
as §1

[4] = NF54, pure compounds, tested as mono- or bis-trifluoroacetates where marked
[5] = NF54, values in brackets, calculated with the molecular masses of the corresponding salts
[6] = Trypanosoma brucei, pure compounds, tested as mono- or bis-trifluoroacetates where marked
[7] = Trypanosoma brucei, values in brackets, calculated with the molecular masses of the corresponding salts

| Compound | IC50 [1, 4] | IC50 [1, 5] | SI (Pf) [1] | SI(Tbr) ([2]; pure compounds) | IC50 [2, 6] | IC50 [2, 7] | IC50 at 70 h [3] | IC50 ([2]; values in brackets, calculated with the molecular masses of the corresponding salts) |
| --- | --- | --- | --- | --- | --- | --- | --- | --- |
| C[C@@H]([C@H]1CC[C@H]2[C@@H]3CC[C@H]4[C@@H](O)[C@@H](NC(=O)c5ccccc5)[C@@H](O)C[C@]4(C)[C@H]3CC[C@]12C)N(C)C [Compound 18, 2β,3β,4β-Diapachysamine K] | 47 ± 7 µg/mL | 80000 nM | 0.4 | 3 | 5.9 ± 0.4 µg/mL | 9900 nM | 17 µg/mL and 28 µM |  |
| CC(C)=CC(=O)N[C@@H]1[C@H](O)[C@@H]2CC[C@@H]3[C@H](CC[C@]4(C)[C@@H]([C@H](C)N(C)C)CC[C@@H]34)[C@@]2(C)C[C@@H]1O [Compound 16, 4β-Hydroxy-hookerianamide N] | 6.1 ± 0.5 µg/mL | 10600 nM | 7 | 6 | 8.1 ± 0.6 µg/mL | 14100 nM | 45 µg/mL and 79 µM |  |
| CNC1CCC2(C)C3CCC4(C)C(CCC4C(C)N(C)C)C3CCC2C1OC(=O)c1ccccc1 (centres unmarked) [Compound 7] | 0.45 ± 0.09 µg/mL | 630 nM | 23 | 133 | 0.079 ± 0.001 µg/mL | 110 nM | 10 µg/mL and 15 µM | 112 nM |
| C[C@@H]([C@H]1CC[C@H]2[C@@H]3CC=C4C[C@@H](NC(=O)c5cccnc5)CC[C@]4(C)[C@H]3CC[C@]12C)N(C)C [Compound 5, Pactermine A] | 0.91 ± 0.02 µg/mL | 1340 nM | 6 | 3 | 1.93 ± 0.06 µg/mL | 2850 nM | 5.8 µg/mL and 8.6 µM |  |
